Records with an inconclusive call do not appear.
Tested on: M. tuberculosis H37Rv growth inhibition, 7H9 media
Test: M. tuberculosis growth inhibition, HTS (AID 449762);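 note: bacterial growth assessed after seven days of incubation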
Details: for IC90: measured here: IC90 growth inhibition

Structure (SMILES)	IC50	IC90
CCc1c(C2(O)CCCCC2)[nH]c2ccc(C(F)(F)F)cc12	28.4 µM	> 50 µM
O=C(Nc1cccc(-c2csc(Nc3ccc(Cl)cc3)n2)c1)c1cccc(C(F)(F)F)c1	27 µM	> 100 µM
COC(=O)c1ccc(-c2ncc(-c3cccc4ccccc34)o2)cc1	15.8 µM	52.7 µM
CCCCC(=O)/C=C/n1c(=S)oc2ccccc21	28.2 µM	> 100 µM
c1ccc(CCNc2ncnc3c2cnn3-c2ccccc2)cc1	22.1 µM	> 50 µM
Cc1oc(-c2cccc(Cl)c2)nc1CN1CCC(C(=O)N2CCN(c3ccccc3F)CC2)CC1	20.8 µM	26.3 µM
CCc1cccc2c(=O)c(C(=O)N3CCOCC3)c[nH]c12	6.62 µM	14.2 µM
O=C([O-])c1ccccc1-[n+]1c(-c2ccccc2)cc(-c2ccccc2)cc1-c1ccccc1	15.3 µM	20.5 µM
O=C(NC1CCCCCC1)c1ccccc1-c1ccccc1	18.4 µM	> 100 µM
CCOC(=O)c1ccc2c(c1)C(=O)N(C1CCCCC1)C2=O	98.3 µM	> 100 µM
CC(C)OC(=O)CSc1nc2ccccc2s1	12.4 µM	33.6 µM
Cn1ncnc2c(=O)n(C)c(=O)nc1-2	1.66 µM	2.62 µM
CCC(C)(C)c1ccc(OCCCC[n+]2ccc(C)cc2)c(C(C)(C)CC)c1	10.2 µM	15 µM
COc1ccccc1C(=O)NNC(=O)C(=O)NCc1ccccc1	10.6 µM	37.9 µM
Cc1occc1-c1nnc(SCC(=O)NCCc2ccccc2)o1	9.83 µM	20 µM
CCCN(CC1CC1)C(=O)COC(=O)c1ccc2c(c1)C(=O)N(c1ccc(OCC)cc1)C2=O	35.2 µM	> 100 µM
O=C(O)Cc1c[nH]c2ccc(O)cc12		> 100 µM
CO[C@@H]1[C@@H](OC(N)=O)[C@@H](O)C(Oc2ccc3c(O)c(NC(=O)c4ccc(O)c(CC=C(C)C)c4)c(=O)oc3c2C)OC1(C)C (stereo not given in full)	4.98 µM	9.66 µM
CN(C)S(=O)(=O)c1cccc(NC(=O)CSc2cccc3cccnc23)c1	58.6 µM	65.1 µM
Cn1cnc(Sc2ncnc3nc[nH]c23)c1[N+](=O)[O-]	9.85 µM	17 µM
Cc1ccc(C#CC[N+]2(CC#Cc3ccc(C)cc3)CCCCC2)cc1	12.7 µM	14.4 µM
CCCCCCCCCCCCCCCC[N+](C)(C)CC	30.3 µM	43 µM
CCOc1ccc(NC(=O)c2sc3nc(C)nc(N4CCOCC4)c3c2C)cc1	35.6 µM	61.3 µM

Structure (SMILES)	IC50	IC90
CN(C)c1ccc(/C=C2\N=C(C(C)(C)C)OC2=O)cc1	14.4 µM	34.5 µM
Nc1nnnn1/N=C/C(Br)=C/c1ccccc1	1.08 µM	8.66 µM
O=C(O)C1CC=CCC1C(=O)N1CCN(c2nc(-c3ccccc3Cl)c3cc(Br)ccc3n2)CC1 (stereo not given)	46.4 µM	78.5 µM
N#Cc1ccc(CN2CCN(CC(=O)NCCc3ccc(Cl)cc3Cl)CC2)cc1	43.1 µM	54 µM
O=C(Nc1nc2ccc(SC(F)F)cc2s1)c1ccc(NS(=O)(=O)c2ccc(F)c(F)c2)cc1	16.5 µM	24.7 µM
CC1CCCC/C1=N\NC(=S)NCCc1ccccc1 (stereo not given)	21.9 µM	24.6 µM
N#Cc1ccc(OCC(O)CN2CCN(c3ncc(C(F)(F)F)cc3Cl)CC2)cc1 (stereo not given)	15.2 µM	24 µM
Nc1c(N(CCC2=CCCCC2)C(=O)c2ccc([N+](=O)[O-])o2)c(=O)[nH]c(=O)n1Cc1ccccc1	16.6 µM	30.2 µM
COC(=O)CSc1[nH]c2ccc(Br)cc2c1[N+](=O)[O-]	5.64 µM	9.31 µM
O=[N+]([O-])c1ccc(C2Oc3ccccc3C3CC(c4ccccc4)=NN32)s1 (stereo not given)	6.12 µM	6.95 µM
O=[N+]([O-])c1cnc(Nc2ccc(Cl)cn2)c([N+](=O)[O-])c1	45.8 µM	> 100 µM
C/C(=N\NC(=O)c1cc2ccccc2cc1O)c1ccc(C)o1	10.1 µM	36.3 µM
COc1ccc(NC(=O)CSc2nnc(-c3ccccn3)n2N)cc1Cl	18.1 µM	> 100 µM
CCC1(c2ccccc2)ON(c2c(Br)cccc2Br)C1=O (stereo not given)	16.9 µM	50.4 µM
CCn1c(C)nc2cc(C(=O)OC(C(F)(F)C(F)F)C(F)(F)C(F)F)ccc21	17.8 µM	26.1 µM
O=C(CN1CCN(c2ccccc2O)CC1)Nc1ccccc1C(=O)NCCc1ccccc1	44.3 µM	57.9 µM
COc1ccc(OCc2cccc(C(=O)Nn3cc([N+](=O)[O-])cn3)c2)cc1	9.92 µM	36.5 µM
Cc1nc(N2CCC(C)CC2)c2oc3ccccc3c2n1	24 µM	45.4 µM
CC(c1nc2ccccc2c(=O)[nH]1)N(C)CCOc1ccc(Cl)cc1 (stereo not given)	40.4 µM	51.7 µM
Cc1cc(NC2CCCCC2)nc(-c2ccccc2O)n1	39.2 µM	51.3 µM
CC(C)(C)C(=O)N1CCN(c2ccc(NC(=O)c3ccc([N+](=O)[O-])o3)cc2)CC1	< 0.2 µM	< 0.2 µM
COc1ccc(-c2cc3ccccc3oc2=O)cc1NC(=O)c1ccc([N+](=O)[O-])o1	0.37 µM	> 100 µM
CCCSc1nnc(Sc2nnnn2-c2ccccc2)s1	10.2 µM	33 µM

Structure (SMILES)	IC50	IC90
COC(=O)c1cc(=O)n(-c2ccc(F)cc2)c(=Nc2ccc(F)cc2)s1	< 0.2 µM	1.86 µM
CCOc1ccc(NC(=S)Nc2ccc(C)c([N+](=O)[O-])c2)cc1	45 µM	> 100 µM
CCn1c(SCC(=O)Nc2ccc3c(c2)oc2ccccc23)nnc1-c1ccc(N)cc1		> 100 µM
COc1ccc(OCC(=O)Nc2c(C(=O)N(CCN(C)C)Cc3ccco3)oc3ccccc23)cc1	24.8 µM	27.5 µM
O=C(N[C@H]1CCC(=O)N(CCSc2ccc(Br)cc2)CC1)OCc1ccccc1	23.3 µM	28.6 µM
CCOC(=O)c1c(NC(=O)C(NCCN(C)C)c2ccccc2)sc2c1CCCC2 (stereo not given)	4.75 µM	10.1 µM
Cc1ccc(-n2c(Cl)c(Cl)nc(Cl)c2=O)cc1	5.97 µM	18.3 µM
O=C(CCl)NCCCCCCCCCNC(=O)CCl	< 0.2 µM	< 0.2 µM
O=C(OCC(=O)N1CCN(C(=O)c2ccco2)CC1)c1cc(-c2cccc(Br)c2)nc2ccccc12	95.2 µM	> 100 µM
Cc1cc(Cl)ccc1NNC(=O)CCc1ccccc1	94.5 µM	> 100 µM
O=C(CCl)NN=C(c1ccccc1)c1ccccc1	0.52 µM	1.89 µM
CC(C)CC[n+]1ccccc1/C=C/c1ccc(N(C)C)cc1	5.3 µM	8.41 µM
CC(C)(C)c1ccc(OCCCC(=O)NC2=NCCS2)cc1	23 µM	60.6 µM
COc1ccc2c(c1)[C@@H]1[C@H](CO2)[C@H](c2ccccc2)[C@]2(C)C(=O)Nc3ccc(C)cc3C(=O)N12	49.5 µM	> 100 µM
Cc1ccc(NC(=O)COc2ccc(-n3ccnc3)cc2)cc1Cl	24.8 µM	28.8 µM
O=C(N/N=C/c1ccc(Br)s1)c1cccs1	24.3 µM	> 100 µM
CCn1cnc2sc(C(=O)Oc3ccc(Br)cc3)c(C)c2c1=O	3.2 µM	11.3 µM
CCOC(=O)CSc1ncnc2c1sc1nc(N3CCOCC3)c3c(c12)CCCC3	23.3 µM	26.2 µM
O=C(Oc1ccc(-c2cn3c(n2)SCC3)cc1)c1ccccc1	38.2 µM	> 100 µM
CC(C)c1nnc(NC(=O)CCC(=O)N2CCN(c3ccc(Cl)cc3)CC2)s1	11.8 µM	29.5 µM
COc1ccccc1C(=O)NC(=Nc1nc2ccccc2o1)NC(=O)c1ccccc1OC	96.3 µM	> 100 µM
COc1ccc(OCCCC(=O)OC(C)C(=O)Nc2ccccc2[N+](=O)[O-])cc1 (stereo not given)	15.4 µM	> 100 µM
CCOC(=O)[C@@H]1[C@H]2COc3cc(OC)ccc3[C@H]2N2C(=O)N(c3ccc(C(F)(F)F)cc3)C(=O)[C@]12C	5.77 µM	6.48 µM

Structure (SMILES)	IC50	IC90
COc1cc(C(=O)N/N=C/c2cc([N+](=O)[O-])cs2)cc(OC)c1OC	< 0.2 µM	25.9 µM
Cc1cc(N/N=C/c2ccccc2[N+](=O)[O-])nc(-n2nc(C)cc2C)n1	0.92 µM	4.72 µM
CCN1/C(=C/c2ccc3cc(C)ccc3[n+]2CC)Sc2ccccc21	1.41 µM	1.61 µM
N=c1oc2cc(O)ccc2cc1C(=O)Nc1ccc(Br)cc1	0.86 µM	4.2 µM
CC(C)OC(=O)c1ccc(NC(=S)NC(=O)c2cncc(Br)c2)cc1	52.4 µM	> 100 µM
O=C(N/N=C/c1cn(-c2ccccc2)nc1-c1cccs1)c1ccc(Cl)cc1		> 100 µM
C=CCc1c(C)nc(C)nc1N/N=C/c1ccccc1O	2.25 µM	4.08 µM
CCOC(=O)CNc1ccc(C(=O)OCC)cc1[N+](=O)[O-]	8.45 µM	22.6 µM
COc1ccc(-c2nnc(NC(=O)c3ccc([N+](=O)[O-])o3)o2)c(OC)c1	1.05 µM	3.04 µM
N#Cc1nccnc1S(=O)(=O)c1cccs1	40.6 µM	61.1 µM
CC(O)CNc1nc2ccccc2n1-c1ncnc2sc3c(c12)CCC3 (stereo not given)	27.6 µM	36.6 µM
Cc1ccc(C(=O)c2cc(C)sc2NC(=O)CN2CCN(C(=O)c3ccco3)CC2)cc1	3.81 µM	12 µM
CN(C)c1ccc(-c2cc(O)c3ncccc3c2)cc1	2.55 µM	4.17 µM
C(=N\Nc1ccc2ccccc2n1)/c1ccc2c(c1)OCCO2	2.77 µM	4.03 µM
CCOc1cc2c(cc1OCC)-n1cccc1C(c1ccc(C(C)C)cc1)NC2 (stereo not given)	20.6 µM	29.6 µM
O=C(NCCC1=CCCCC1)NC12CC3CC(CC(C3)C1)C2	< 0.2 µM	0.34 µM
CCOC(=O)C1CCN(c2nc3cc(OC)ccc3cc2C#N)CC1	52.7 µM	> 100 µM
O=C(Cc1ccccc1)N/N=C/c1ccc2cccc(O)c2n1	7.67 µM	12.3 µM
O=C1Nc2ccc(Br)cc2C12NNc1ccccc1O2 (stereo not given)	23.3 µM	43.6 µM
O=C1C(c2ccccc2)=[N+]([O-])c2ccccc21	95.8 µM	> 100 µM

From PubChem BioAssay AID449762 (Southern Research Specialized Biocontainment Screening …, 2010)
